The source of these data is patent publication US20190374627A1, “TARGET PEPTIDES FOR CANCER THERAPY AND DIAGNOSTICS” (priority 2016, published 2019).

Square brackets hold non-standard residues; d marks the D form. Ends that are not written are not given here. pT = C[C@@H](OP(=O)(O)O)[C@H](N)C(=O)O; pS = N[C@@H](COP(=O)(O)O)C(=O)O

One test concerns CD8^+ T cells (PBMCs). The test is described as follows: Intracellular cytokine staining (ICS) of PBMCs after 7 days of stimulation with MHC-I-pP (healthy donors, HH patients). The format is cell-based, human. To be noted: for Reactive CD8^+ T cell population, HH2: HH patient HH2; for Reactive CD8^+ T cell population, HH3: HH patient HH3; for Reactive CD8^+ T cell population, HH8: HH patient HH8; for Reactive CD8^+ T cell population, HH11: HH patient HH11. As to the method:
From this, CD8^+ T cell responses against newly identified MHC class I-associated phosphopeptides in healthy individuals and patients with chronic liver disease were investigated. Twenty-one of the newly identified HCC-associated HLA-A*0201-restricted phosphopeptides were selected (see Table 17) for further immunological testing in HLA-A*0201 positive patients. MHC-I-pP-specific cytotoxic CD8^+ T cell responses (ppCTL) were assessed using intracellular cytokine staining (ICS) and several cytokines and surface markers were assessed in parallel. After 7 days of stimulation with the respective MHC-I-pP and no other cytokines, CD3- and CD8-expressing T cells were stained for at least two different cytokines (IFN-γ, TNF-α) and when required CD107a expression as a marker for their cytotoxic potential.
First, peripheral blood mononuclear cells (PBMCs) from healthy donors and patients with hereditary hemochromatosis (HH) were analyzed. HH is a chronic liver disease characterized by excessive intestinal absorption of dietary iron resulting in a pathological deposition of iron in the liver. PBMCs or lymphocytes from liver tissue were extracted and specifically stimulated with (phospho-) peptides for 7 days before intracellular cytokine staining (ICS). Doublets and dead cells, using a fixable viability dye, were excluded. Lymphocytes were gated on CD3^+ and CD8^+ double positive cells and were analysed for expression of IFNγ, TNFα-, and CD107a.

In test [1] the test system is expanded lymphocyte cultures from deceased donor livers, cirrhotic livers and HCC. The test is described as follows: ICS for MHC-I-pP reactivity of liver-derived lymphocyte cultures after phosphopeptide-specific expansion. To be noted: for ppCTL response, Deceased Donor Liver Do 2 / ppCTL response, Deceased Donor Liver Do 3 / ppCTL response, Deceased Donor Liver Do 4 / ppCTL response, Deceased Donor Liver Do 6 / ppCTL response, End-stage Liver Cirrhosis IHL 11 / ppCTL response, End-stage Liver Cirrhosis IHL 13 / ppCTL response, HCC Distal HCC 1 / ppCTL response, HCC Tumor HCC 1 / ppCTL response, HCC Distal HCC 4: pP-specifically expanded culture; for ppCTL response, HCC Distal HCC 1: HCC 1 Distal; for ppCTL response, HCC Tumor HCC 1: HCC 1 Tumor; for ppCTL response, HCC Distal HCC 4: HCC 4 Distal. The class given is cell-based, human.

The test system of test [2] is unexpanded lymphocyte cultures (CD8^+ T cells). The experiment in a line: ICS for MHC-I-pP reactivity of lymphocyte cultures without expansion (Table 23, No Expansion). To be noted: HH6.

Consider “KLFPDtPLAL: ILF3 phosphopeptide, HLA-A*0201 (KLFPD[pT]PLAL; listed as Homo sapiens)”, for which, in the test on CD8^+ T cells (PBMCs), the “Reactive CD8^+ T cell population, HH2” value is 0 (<0.25% reactive CD8^-+ T cells); the “Reactive CD8^+ T cell population, HH3” value was 0 (<0.25% reactive CD8^-+ T cells); the “Reactive CD8^+ T cell population, HH8” value was 0 (<0.25% reactive CD8^-+ T cells); the “Reactive CD8^+ T cell population, HH11” value is given as 0 (<0.25% reactive CD8^-+ T cells). Further, in test [1], the “Reactive CD8^+ T cells, pP-specific Expansion, Do2” value (from here on “Reactive CD8^+ T cells … Do2”) was 0 (<0.25% reactive CD8^-+ T cells); the “Reactive CD8^+ T cells, pP-specific Expansion, Do4” value (shortened to “Reactive CD8^+ T cells … Do4”) is 0 (<0.25% reactive CD8^-+ T cells); the “Reactive CD8^+ T cells, pP-specific Expansion, HH6” value is reported as 0 (<0.25% reactive CD8^-+ T cells); the “ppCTL response, Deceased Donor Liver Do 2” value is listed as 0 (<0.25% reactive CD8-+ T cells). In addition, in test [1], the “ppCTL response, Deceased Donor Liver Do 3” value is 0 (<0.25% reactive CD8-+ T cells); the “ppCTL response, Deceased Donor Liver Do 4” value is 0 (<0.25% reactive CD8-+ T cells); the “ppCTL response, Deceased Donor Liver Do 6” value is on record as 0 (<0.25% reactive CD8-+ T cells); the “ppCTL response, End-stage Liver Cirrhosis IHL 11” value was 0 (<0.25% reactive CD8-+ T cells). Besides, in test [1], the “ppCTL response, End-stage Liver Cirrhosis IHL 13” value was 0 (<0.25% reactive CD8-+ T cells); the “ppCTL response, HCC Distal HCC 1” value is recorded as 0 (<0.25% reactive CD8-+ T cells); the “ppCTL response, HCC Tumor HCC 1” value is reported as 0 (<0.25% reactive CD8-+ T cells); the “ppCTL response, HCC Distal HCC 4” value is 0 (<0.25% reactive CD8-+ T cells). The “Reactive CD8^+ T cells, No Expansion, HH6” value in test [2] is reported as 0 (<0.25% reactive CD8^-+ T cells).

As for “RQAsIELPSMAV: LSP1 phosphopeptide, HLA-A*0201 (RQA[pS]IELPSMAV; listed as Homo sapiens)”, in the test with CD8^+ T cells (PBMCs), the “Reactive CD8^+ T cell population, HH2” value is on record as 0 (<0.25% reactive CD8^-+ T cells); the “Reactive CD8^+ T cell population, HH3” value is 0 (<0.25% reactive CD8^-+ T cells); the “Reactive CD8^+ T cell population, HH8” value is recorded as 0 (<0.25% reactive CD8^-+ T cells); the “Reactive CD8^+ T cell population, HH11” value is 0 (<0.25% reactive CD8^-+ T cells). Further, in test [1], the “Reactive CD8^+ T cells … Do2” value is given as 0 (<0.25% reactive CD8^-+ T cells); the “Reactive CD8^+ T cells … Do4” value was 0 (<0.25% reactive CD8^-+ T cells); the “Reactive CD8^+ T cells, pP-specific Expansion, HH6” value was 0 (<0.25% reactive CD8^-+ T cells); the “ppCTL response, Deceased Donor Liver Do 2” value is recorded as 0 (<0.25% reactive CD8-+ T cells). In test [1], the “ppCTL response, Deceased Donor Liver Do 3” value is 0 (<0.25% reactive CD8-+ T cells); the “ppCTL response, Deceased Donor Liver Do 4” value is listed as 0 (<0.25% reactive CD8-+ T cells); the “ppCTL response, Deceased Donor Liver Do 6” value was 1 (0.25-2.5% reactive CD8-+ T cells); the “ppCTL response, End-stage Liver Cirrhosis IHL 11” value is 0 (<0.25% reactive CD8-+ T cells). In test [1], the “ppCTL response, End-stage Liver Cirrhosis IHL 13” value is on record as 0 (<0.25% reactive CD8-+ T cells); the “ppCTL response, HCC Distal HCC 1” value is 0 (<0.25% reactive CD8-+ T cells); the “ppCTL response, HCC Tumor HCC 1” value is reported as 0 (<0.25% reactive CD8-+ T cells); the “ppCTL response, HCC Distal HCC 4” value is reported as 0 (<0.25% reactive CD8-+ T cells). Moreover, the “Reactive CD8^+ T cells, No Expansion, HH6” value in test [2] is 1 (0.25-2.5% reactive CD8^-+ T cells).

As to “RLFsKELRC: TAF13 phosphopeptide, HLA-A*0201 (RLF[pS]KELRC; listed as Homo sapiens)”, in the test on CD8^+ T cells (PBMCs), the “Reactive CD8^+ T cell population, HH2” value was 2 (2.5-5.0% reactive CD8^-+ T cells); the “Reactive CD8^+ T cell population, HH3” value is listed as 0 (<0.25% reactive CD8^-+ T cells); the “Reactive CD8^+ T cell population, HH8” value is 0 (<0.25% reactive CD8^-+ T cells). Besides, in test [1], the “Reactive CD8^+ T cells … Do2” value is recorded as 0 (<0.25% reactive CD8^-+ T cells); the “Reactive CD8^+ T cells … Do4” value is reported as 0 (<0.25% reactive CD8^-+ T cells); the “Reactive CD8^+ T cells, pP-specific Expansion, HH6” value is recorded as 0 (<0.25% reactive CD8^-+ T cells); the “ppCTL response, Deceased Donor Liver Do 2” value is 1 (0.25-2.5% reactive CD8-+ T cells). Moreover, in test [1], the “ppCTL response, Deceased Donor Liver Do 3” value was 0 (<0.25% reactive CD8-+ T cells); the “ppCTL response, Deceased Donor Liver Do 4” value is 0 (<0.25% reactive CD8-+ T cells); the “ppCTL response, Deceased Donor Liver Do 6” value was 0 (<0.25% reactive CD8-+ T cells); the “ppCTL response, End-stage Liver Cirrhosis IHL 11” value is 0 (<0.25% reactive CD8-+ T cells). Further, in test [1], the “ppCTL response, End-stage Liver Cirrhosis IHL 13” value is reported as 0 (<0.25% reactive CD8-+ T cells); the “ppCTL response, HCC Distal HCC 1” value is 0 (<0.25% reactive CD8-+ T cells); the “ppCTL response, HCC Tumor HCC 1” value is 0 (<0.25% reactive CD8-+ T cells); the “ppCTL response, HCC Distal HCC 4” value is 0 (<0.25% reactive CD8-+ T cells). In test [2], the “Reactive CD8^+ T cells, No Expansion, HH6” value is on record as 0 (<0.25% reactive CD8^-+ T cells).

On to “RQLsSGVSEI: HSPB1 phosphopeptide, HLA-A*0201 (RQL[pS]SGVSEI; listed as Homo sapiens)”, for which, in the test with CD8^+ T cells (PBMCs), the “Reactive CD8^+ T cell population, HH2” value is 0 (<0.25% reactive CD8^-+ T cells); the “Reactive CD8^+ T cell population, HH3” value is on record as 0 (<0.25% reactive CD8^-+ T cells); the “Reactive CD8^+ T cell population, HH8” value is 0 (<0.25% reactive CD8^-+ T cells); the “Reactive CD8^+ T cell population, HH11” value is recorded as 0 (<0.25% reactive CD8^-+ T cells). In test [1], the “Reactive CD8^+ T cells … Do2” value was 0 (<0.25% reactive CD8^-+ T cells); the “Reactive CD8^+ T cells … Do4” value is listed as 0 (<0.25% reactive CD8^-+ T cells); the “Reactive CD8^+ T cells, pP-specific Expansion, HH6” value was 0 (<0.25% reactive CD8^-+ T cells); the “ppCTL response, Deceased Donor Liver Do 2” value is 0 (<0.25% reactive CD8-+ T cells). Besides, in test [1], the “ppCTL response, Deceased Donor Liver Do 3” value was 0 (<0.25% reactive CD8-+ T cells); the “ppCTL response, Deceased Donor Liver Do 4” value is 0 (<0.25% reactive CD8-+ T cells); the “ppCTL response, Deceased Donor Liver Do 6” value was 0 (<0.25% reactive CD8-+ T cells); the “ppCTL response, End-stage Liver Cirrhosis IHL 11” value is 0 (<0.25% reactive CD8-+ T cells). Further, in test [1], the “ppCTL response, End-stage Liver Cirrhosis IHL 13” value is 0 (<0.25% reactive CD8-+ T cells); the “ppCTL response, HCC Distal HCC 1” value is recorded as 0 (<0.25% reactive CD8-+ T cells); the “ppCTL response, HCC Tumor HCC 1” value is recorded as 0 (<0.25% reactive CD8-+ T cells); the “ppCTL response, HCC Distal HCC 4” value was 0 (<0.25% reactive CD8-+ T cells). The “Reactive CD8^+ T cells, No Expansion, HH6” value in test [2] is 2 (2.5-5.0% reactive CD8^-+ T cells).

On to “RQDsTPGKVFL: NR2C1 phosphopeptide, HLA-A*0201 (RQD[pS]TPGKVFL; listed as Homo sapiens)”, for which, in the test on CD8^+ T cells (PBMCs), the “Reactive CD8^+ T cell population, HH2” value is given as 0 (<0.25% reactive CD8^-+ T cells); the “Reactive CD8^+ T cell population, HH3” value is given as 0 (<0.25% reactive CD8^-+ T cells); the “Reactive CD8^+ T cell population, HH8” value is recorded as 0 (<0.25% reactive CD8^-+ T cells); the “Reactive CD8^+ T cell population, HH11” value is given as 0 (<0.25% reactive CD8^-+ T cells). Moreover, in test [1], the “Reactive CD8^+ T cells … Do2” value was 0 (<0.25% reactive CD8^-+ T cells); the “Reactive CD8^+ T cells … Do4” value is listed as 0 (<0.25% reactive CD8^-+ T cells); the “Reactive CD8^+ T cells, pP-specific Expansion, HH6” value is recorded as 1 (0.25-2.5% reactive CD8^-+ T cells); the “ppCTL response, Deceased Donor Liver Do 2” value is recorded as 1 (0.25-2.5% reactive CD8-+ T cells). In test [1], the “ppCTL response, Deceased Donor Liver Do 3” value was 0 (<0.25% reactive CD8-+ T cells); the “ppCTL response, Deceased Donor Liver Do 4” value is on record as 0 (<0.25% reactive CD8-+ T cells); the “ppCTL response, Deceased Donor Liver Do 6” value was 0 (<0.25% reactive CD8-+ T cells); the “ppCTL response, End-stage Liver Cirrhosis IHL 11” value is recorded as 0 (<0.25% reactive CD8-+ T cells). Moreover, in test [1], the “ppCTL response, End-stage Liver Cirrhosis IHL 13” value is reported as 0 (<0.25% reactive CD8-+ T cells); the “ppCTL response, HCC Distal HCC 1” value is reported as 0 (<0.25% reactive CD8-+ T cells); the “ppCTL response, HCC Tumor HCC 1” value is 0 (<0.25% reactive CD8-+ T cells); the “ppCTL response, HCC Distal HCC 4” value is listed as 0 (<0.25% reactive CD8-+ T cells). The “Reactive CD8^+ T cells, No Expansion, HH6” value in test [2] is 2 (2.5-5.0% reactive CD8^-+ T cells).
